Measured values reported in US20260209260A1, “VECTORIZED NHC IRIDIUM(III) COMPLEXES AND USE THEREOF IN PHOTODYNAMIC THERAPY AND/OR DIAGNOSTIC” (CENTRE NATIONAL DE LA RECHERCHE SCIENTIFIQUE, priority 2022, published 2026).
Where two headings read alike, the source gives them in different places.

Assays:
Assay type in all cases: cell-based, Human
[1] = tested on: Scaber bladder cancer cells; experiment: Cell viability assay (MTT), dark and blue light; settings: for Photosensitizing index (PI) Scaber: dark vs blue light 458 nm
In short: (§1)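 Seeded cells attached overnight, were exposed to complexes for 8 h, received 10 min of 458 nm blue light (9.6 W LED array), then stayed in the dark until 72 h; parallel plates were kept dark throughout. MTT for 3 to 4 h, DMSO solubilization, absorbance at 570 nm.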

Hela cervix cancer cells = experiment: Cell viability assay (MTT), dark and blue light; settings: for SI (vs MC3T3) HeLa Blue: blue light 458 nm; for Photosensitizing index (PI) HeLa: dark vs blue light 458 nm
In short: as §1

[2] = tested on: DU-145 prostate cancer cells (PSMA-negative); experiment: Cell viability assay (MTT), dark and blue light; settings: for Photosensitizing index (PI): DU145, dark vs blue light; for SI (vs MC3T3) DU145 Blue / SI (vs NIH-3T3) DU145 Blue: blue light 458 nm
In short: (§2)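 Dark versus photoactivated cytotoxicity is compared by MTT in RPMI-grown cells, with 72 h total compound exposure at 0.1% DMSO. Blue light (458 nm) is given for 10 min after an 8 h incubation; data come from at least three independent triplicate experiments.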

[3] = tested on: 22rV1 prostate cancer cells (PSMA-positive); experiment: Cell viability assay (MTT), dark and blue light; settings: for Photosensitizing index (PI): 22Rv1, dark vs blue light; for SI (vs NIH-3T3) 22Rv1 Blue / SI (vs MC3T3) 22Rv1 Blue: blue light 458 nm
In short: as §2

[4] = tested on: PSMA-negative cells (PC-3 and DU145); experiment: Cell viability assay (MTT), summary over PSMA-negative cancer cells; settings: blue light 458 nm; read-out: GI50 mean over PSMA-negative cancer cells, irradiated
Description: (§3) Cells were grown in humidified incubators at 37° C. in 5% CO2. Murine MC3T3 osteoblast and NIH-3T3 fibroblast cells-used as non-tumor cell models-were cultured in a-MEM medium and DMEM medium supplemented with 10% fetal bovine serum (FBS) and 1% Penicillin/Streptomycin (P/S) antibiotics, respectively. Human T24 bladder, MGHU3 bladder, Scaber bladder, A549 lung, MCF7 breast, MiaPaCa2 pancreas cancer cells were cultured in DMEM medium supplemented with 10% FBS and 1% P/S antibiotics. Human ASPC-1 pancreas, PC-3 prostate, DU-145 prostate, C4-2B prostate and 22rV1 prostate cancer cells were cultured in RPMI medium supplemented with 10% FBS and 1% P/S antibiotics. Human Hela cervix and HepG2 liver cancer cells were cultured EMEM medium supplemented with 10% FBS and 1% P/S antibiotics.
(§4) MTT reagent (3-(4,5-dimethylthiazol-2-yl)-2,5-diphenyltetrazolium bromide) was used to determine cell death as originally described by Mosmann. […] The concentration of the complexes was calculated based on the elemental composition of the complexes determined by the elemental analyses. […] After solubilization with 500 μL of DMSO, formazan was quantified spectrophotometrically with a microplate reader at 570 nm absorbance (ClarioSTAR, BMG LabTech). […] All the results were calculated from data obtained in at least three independent experiments performed in triplicate. […]

[5] = tested on: PSMA-positive cells (C4-2b and 22Rv1); experiment: Cell viability assay (MTT), summary over PSMA-positive cancer cells; settings: blue light 458 nm; read-out: GI50 mean over PSMA-positive cancer cells, irradiated
Description: as §3, §4

[6] = 8 h in the dark, blue light 458 nm 10 min, then dark up to 72 h, read-out: GI50 Scaber Blue
[7] = in the dark, 72 h, read-out: GI50 Scaber Dark
[8] = 8 h in the dark, blue light 458 nm 10 min, then dark up to 72 h, read-out: GI50 HeLa Blue
[9] = in the dark, 72 h, read-out: GI50 HeLa Dark
[10] = 8 h in the dark, blue light 458 nm 10 min, then dark up to 72 h, read-out: GI50 DU145 Blue
[11] = DU145, blue light, read-out: GI50
[12] = in the dark, 72 h, read-out: GI50 DU145 Dark
[13] = 22Rv1, blue light, read-out: GI50
[14] = 8 h in the dark, blue light 458 nm 10 min, then dark up to 72 h, read-out: GI50 22Rv1 Blue
[15] = in the dark, 72 h, read-out: GI50 22Rv1 Dark

Compound | GI50 [1, 6] | SI (vs MC3T3) Scaber Dark [1] | SI (vs NIH-3T3) Scaber Dark [1] | Photosensitizing index (PI) Scaber [1] | GI50 [1, 7] | GI50 (Hela cervix cancer cells; [8]) | SI (vs MC3T3) HeLa Dark (Hela cervix cancer cells) | Photosensitizing index (PI) HeLa (Hela cervix cancer cells) | GI50 (Hela cervix cancer cells; [9]) | GI50 [2, 10] | GI50 [2, 11] | Photosensitizing index (PI) [2] | GI50 ([2]; DU145, dark, read-out: GI50) | SI (vs MC3T3) DU145 Blue [2] | GI50 [2, 12] | GI50 [3, 13] | Photosensitizing index (PI) [3] | GI50 ([3]; 22Rv1, dark, read-out: GI50) | GI50 [3, 14] | GI50 [3, 15] | also measured
COC(=O)c1ccc2[n+](c1)[Ir-3]13([c]4ccccc4-2)([c]2ccccc2-c2ccc(C(=O)OC)c[n+]21)[c]1n(CCCNC(=O)CCCC[C@@H]2SC[C@@H]4NC(=O)N[C@@H]42)cc[n+]1-c1cccc[n+]13.F[P-](F)(F)(F)(F)F [I-e] | 14.7 µM | <1 | >2.5 | >6.8 | > 100 µM | 59 µM | 0.3 | 3.7 | 221 µM |  |  |  |  |  |  |  |  |  |  |  | SI (vs MC3T3) HeLa Blue (Hela cervix cancer cells): 0.7; SI (vs NIH-3T3) HeLa Dark (Hela cervix cancer cells): >1.1
F[P-](F)(F)(F)(F)F.O=C(CCCC[C@@H]1SC[C@@H]2NC(=O)N[C@@H]21)NCCCn1cc[n+]2[c]1[Ir-3]13([c]4ccccc4-c4ccc5ccccc5[n+]41)([c]1ccccc1-c1ccc4ccccc4[n+]13)[n+]1ccccc1-2 [I-g] | 2.5 µM | 3.9 |  | 5.6 | 14.1 µM | 10.8 µM | 1.2 | 4.1 | 44.3 µM |  |  |  |  |  |  |  |  |  |  |  | SI (vs NIH-3T3) Scaber Blue ([1]; blue light 458 nm): 24.7
F[P-](F)(F)(F)(F)F.O=C(CCCC[C@@H]1SC[C@@H]2NC(=O)N[C@@H]21)NCCCn1cc[n+]2[c]1[Ir-3]13([c]4ccccc4-c4c5ccccc5cc[n+]41)([c]1ccccc1-c1c4ccccc4cc[n+]13)[n+]1ccccc1-2 [I-h] | 1 µM | 1.7 | 4.1 | 24.8 | 24.8 µM | 2.86 µM | 1.0 | 14.6 | 41.8 µM |  |  |  |  |  |  |  |  |  |  |  | SI (vs NIH-3T3) Scaber Blue ([1]; blue light 458 nm): 10.4; SI (vs MC3T3) HeLa Blue (Hela cervix cancer cells): 1.7; SI (vs NIH-3T3) HeLa Dark (Hela cervix cancer cells): 2.4
F[P-](F)(F)(F)(F)F.O=C(CCCC[C@@H]1SC[C@@H]2NC(=O)N[C@@H]21)NCCCn1cc[n+]2[c]1[Ir-3]13([c]4ccccc4-c4sc5ccccc5[n+]41)([c]1ccccc1-c1sc4ccccc4[n+]13)[n+]1ccccc1-2 [I-k] | 1.8 µM | 1.0 | 2.9 | 14.4 | 25.9 µM | 6.5 µM |  | 7.8 | 50.6 µM |  |  |  |  |  |  |  |  |  |  |  | SI (vs MC3T3) Scaber Blue ([1]; blue light 458 nm): 10.7; SI (vs NIH-3T3) Scaber Blue ([1]; blue light 458 nm): 17.3; SI (vs NIH-3T3) HeLa Dark (Hela cervix cancer cells): 1.5
F[P-](F)(F)(F)(F)F.O=C(O)CC[C@H](NC(=O)N[C@@H](CCCCNC(=O)CCn1cc[n+]2[c]1[Ir-3]13([c]4ccccc4-c4c5ccccc5cc[n+]41)([c]1ccccc1-c1c4ccccc4cc[n+]13)[n+]1ccccc1-2)C(=O)O)C(=O)O [III-h] |  |  |  |  |  |  |  |  |  | 1.41 µM | 1.41 µM | 18.5 | 26.1 µM | 5.9 | 26.1 µM | 0.14 µM | 29.3 | 4.1 µM | 0.14 µM | 4.1 µM | SI (vs MC3T3) DU145 Dark [2]: 2.0; SI (vs NIH-3T3) DU145 Dark [2]: >3.8; SI (vs NIH-3T3) 22Rv1 Blue [3]: 131.9; SI (vs MC3T3) 22Rv1 Dark [3]: 12.9; SI (vs NIH-3T3) 22Rv1 Dark [3]: >25; GI50 [4]: 1.6 µM; GI50 [5]: 0.31 µM
F[P-](F)(F)(F)(F)F.O=C(O)CC[C@H](NC(=O)N[C@@H](CCCCNC(=O)CCn1cc[n+]2[c]1[Ir-3]13([c]4cccc5ccc6ccc[n+]1c6c45)([c]1cccc4ccc5ccc[n+]3c5c14)[n+]1ccccc1-2)C(=O)O)C(=O)O [III-i] |  |  |  |  |  |  |  |  |  | 8.2 µM | 8.16 µM | 5.6 | 45.3 µM | 5.0 | 45.3 µM | 1.96 µM | 6.4 | 12.5 µM | 2 µM | 12.5 µM | SI (vs NIH-3T3) DU145 Blue [2]: 6.8; SI (vs NIH-3T3) DU145 Dark [2]: >2.2; SI (vs MC3T3) 22Rv1 Blue [3]: 20.7; SI (vs MC3T3) 22Rv1 Dark [3]: 20.0; SI (vs NIH-3T3) 22Rv1 Dark [3]: >8
F[P-](F)(F)(F)(F)F.O=C(O)CC[C@H](NC(=O)N[C@@H](CCCCNC(=O)CCn1cc[n+]2[c]1[Ir-3]13([c]4c(sc5ccccc45)-c4cccc[n+]41)([c]1c(sc4ccccc14)-c1cccc[n+]13)[n+]1ccccc1-2)C(=O)O)C(=O)O [III-j] |  |  |  |  |  |  |  |  |  | 1.4 µM | 1.35 µM | 151.9 | 205 µM | 9.3 | 205 µM | 0.28 µM | 35.4 | 9.9 µM | 0.28 µM | 9.9 µM | SI (vs NIH-3T3) DU145 Blue [2]: 8.0; SI (vs MC3T3) DU145 Dark [2]: >1.2; SI (vs MC3T3) 22Rv1 Blue [3]: 44.0; SI (vs NIH-3T3) 22Rv1 Blue [3]: 38.0; SI (vs NIH-3T3) 22Rv1 Dark [3]: >10.1
F[P-](F)(F)(F)(F)F.O=C(O)CC[C@H](NC(=O)N[C@@H](CCCCNC(=O)CCn1cc[n+]2[c]1[Ir-3]13([c]4ccccc4-c4sc5ccccc5[n+]41)([c]1ccccc1-c1sc4ccccc4[n+]13)[n+]1ccccc1-2)C(=O)O)C(=O)O [III-k] |  |  |  |  |  |  |  |  |  | 2.2 µM | 2.18 µM | 7.5 | 16.3 µM | 15.5 | 16.3 µM | 0.39 µM | 13.1 | 5.1 µM | 8.39 µM | 5.1 µM | SI (vs NIH-3T3) DU145 Blue [2]: 13.8; SI (vs NIH-3T3) DU145 Dark [2]: >6.1; SI (vs MC3T3) 22Rv1 Blue [3]: 87.1; SI (vs NIH-3T3) 22Rv1 Blue [3]: 77.3; SI (vs MC3T3) 22Rv1 Dark [3]: 18.8; GI50 [4]: 1.6 µM; GI50 [5]: 0.31 µM
